# From patent US8609417B2, “Methods and compositions for stem cell cultures” (The Regents of the University of California, priority 2009, dated 2013)
# Entries after “also recorded” stand apart in the source; their conditions may differ.
# What was measured:
# hiPS cells [1] = test: Cell viability under suspension culture; type: cell-based, human; conditions: hPS cells in suspension, 2 days, various concentrations
# Experimental: For the evaluation of cell viability under suspension culture, hES or hiPS cells were plated at 5×10^5 in non-tissue culture-treated 6-well plates with non-conditioned standard hESm containing blebbistatin or Y-27632 at different concentrations in triplicates. After 2 days, cells were harvested with trypsinization and extensive trituration by pipetting, and the number of live cells was manually counted by using hemocytometer and trypan blue staining. The cell survival ratio (%) represents the ratio of the number of live cells to the number of cells plated. The same samples were subjected to TUNEL assay for side by side comparison with the data from cell viability assay.
# hiPS cells [2] = test: Cell viability assay under adherence conditions (trypan blue live cell counting); type: cell-based, human
# Experimental: hES or hiPS cells were plated at 1×10^5 cells/well on 12-well plates coated with PDL or Matrigel in mTeSR in the presence or absence of blebbistatin or Y-27632 at various concentrations in triplicates. DMSO (solvent for blebbistatin) was also added in the control condition and found to have no effect on viability. For mES cells, cells were plated under the same condition except for the use of gelatin coating and mES medium. After 24 h, cells were harvested, trypsinized to single cells, and counted by hemocytometer. Cell counting was performed independently by two researchers to confirm the consistency. The same samples were used for TUNEL assay immediately after taking a small fraction of the sample for cell counting.
# hES cells = test: Cell-cell contact of hES cells (morphology, cell contact index); type: cell-based, human; conditions: hES cells grown on Matrigel
# Experimental: Rock and myosin II regulate cell-cell interactions in hES cells. To test whether the observed function of RRM signaling in cell-cell contacts in mES cells is conserved in hES cells, H1 cells grown under the feeder-free condition with Matrigel™ and conditioned medium (CM) (FIG. 3A) were treated with C3 exoenzyme. […] Rock-inhibitor treatment also led to cell adhesion defects although it required a higher concentration (20 μM) than that (10 μM) for mES cells (FIG. 3C). Myosin IIA and IIB were colocalized with cell-cell borders in hES cells, which indicates their potential role in cell-cell adhesions (FIG. 3D).
# hiPS cells [3] = test: Cell growth assay (population doubling time); type: cell-based, human; conditions: hiPS cells on PDL in mTeSR, compound at 5 μM
# Experimental: For the cell growth assay, hiPS or hES cells were plated at 2.5×10^4 cells/cm^2 on plates coated with PDL or Matrigel in mTeSR in the presence of blebbistatin at 5 μM or Y-27632 at 5 μM (PDL) or in the absence of compounds (Matrigel). Cells were harvested at the indicated time points, stained with trypan blue, and counted by the hemocytometer.
# mES cells = test: Cell-cell contact of mES cells (morphology, cell contact index); type: cell-based, mouse
# Text: Rho and Rho-associated kinase (Rock) play a role in regulation of cell-cell interactions in pluripotent stem cells. In order to further explore the core mechanism underlying cell-cell adhesions, principle regulators downstream of Rock were examined. Based on functional prescreening non-muscle myosin II was identified as an effector by siRNA-mediated loss of function analysis. Non-muscle Myosin II (myosin II), the two-headed conventional myosin, consists of non-muscle myosin II heavy chain (NMHC) dimers and two sets of myosin light chains (MLCs). […] Among them, all the genes except IIC are expressed in pluripotent stem cells whereas differentiated cells express all three isoforms. […] The specificity and levels of knockdown of the target genes by each siRNA were confirmed by quantitative RT-PCR (QPCR) (FIG. 2). Myosin phosphatase target subunit 1 (MYPT1), a major downstream target of Rock that negatively regulates myosin function through […] of myosin regulatory light chain (MRLC) was examined. MYPT1 was exclusively localized to cell-cell contact sites in mES cells (FIG. 1B). If Rock controls the myosin function through inhibition of MYPT1, depletion of MYPT1 would rescue the intrinsic cell-cell interactions from the robust effect of Y27632 (FIG. 1C).
Structure (SMILES),Effect on survival in suspension culture (hiPS cells [1]),"Effect on cell survival (hiPS cells [2]; hiPS cells on PDL-coated dishes, different concentrations)",Concentration that disassembled cell-cell junctions (hES cells) [µM],Population doubling time (hiPS cells [3]) [h],Concentration that disassembled cell-cell junctions (mES cells) [µM],"Number of viable cells (hiPS cells [2]; hiPS cells on PDL, 10 μM, 24 h after plating 1×10^5 cells/well, n=3)"
O=S(=O)(c1cccc2c(I)cccc12)N1CCCNCC1 [ML-7],did not show a significant effect on survival; also recorded: No difference in the survival rate,No significant increase in cell survival,,,,
C[C@@H](N)[C@H]1CC[C@H](C(=O)Nc2ccncc2)CC1 [Y-27632],,,20,~32.2,10,7.2±1.1×10^4 cells
